Data from article PMC10193966, “Structure of WNT inhibitor adenomatosis polyposis coli down-regulated 1 (APCDD1), a cell-surface lipid-binding protein” (Proceedings of the National Academy of Sciences of the …, 2023).

Molecular target: T1, eMBP-APCDD1 (APCDD1 ECD; lipid in ABD2) (Mus musculus, UniProt Q3U128)
T1 construct: extracellular domain residues 47-481, N-terminal engineered MBP fusion, C-terminal 8xHis; secreted from HEK293T (kifunensine); Endo-F1 and carboxypeptidase A/B treated in situ; single-span membrane protein without TM
Assay: X-ray crystal structure ([…] Å); HPLC/MS of extract from purified APCDD1
Assay type: binding
Settings: co-purified lipid from HEK293 expression with 2% serum; ABD2 hydrophobic pocket, chains A and C; MS sample named only purified APCDD1

T1 sequence (Q3U128 47-481): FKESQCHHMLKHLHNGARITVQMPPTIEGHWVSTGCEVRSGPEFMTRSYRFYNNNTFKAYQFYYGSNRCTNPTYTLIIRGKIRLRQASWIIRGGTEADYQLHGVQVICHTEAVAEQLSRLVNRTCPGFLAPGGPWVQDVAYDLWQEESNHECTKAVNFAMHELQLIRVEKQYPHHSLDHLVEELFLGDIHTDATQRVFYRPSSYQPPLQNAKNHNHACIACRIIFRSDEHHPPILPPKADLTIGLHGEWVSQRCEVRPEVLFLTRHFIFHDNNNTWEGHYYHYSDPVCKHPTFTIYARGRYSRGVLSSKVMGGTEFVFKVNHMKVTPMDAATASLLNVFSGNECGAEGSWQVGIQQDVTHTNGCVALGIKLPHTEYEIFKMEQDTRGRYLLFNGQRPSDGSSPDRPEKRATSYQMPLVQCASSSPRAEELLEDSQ

How did the “X-ray crystal structure (2.3 Å); HPLC/MS of extract from purified APCDD1” value turn out when `CCCCCCCCCCCCCCCCCC(=O)O` [stearic acid] was run?
The value was “This analysis revealed stearic acid, a C18 fatty acid”.
